Source: patent US12303500B2, “Method for improving stability of low-concentration atropine ophthalmic preparation” (SHENYANG XINGQI PHARMACEUTICAL CO., LTD., priority 2018, dated 2025)
Where a name gives a salt, the structure may show the parent alone. Read-outs that look alike come from different tables or passages of the source.

Conditions: 40°C±2°C, RH 75%±5%
Description: In the chromatogram of the sample solution, the chromatographic peaks with peak area smaller than 0.5 times of the main peak area of the control solution should be ignored.

With CN1[C@@H]2CC[C@H]1C[C@@H](OC(=O)C(CO)c1ccccc1)C2 (stereo partly drawn) [Example 160903-P01, atropine sulfate] the Content (0th month) was 100.3%, the Hyoscyamine (0th month) was “+0.002°” and the Moisture (0th month) was 3.15%. The Content (1st month) was 100.3%, the Hyoscyamine (1st month) was “+0.002°” and the Moisture (1st month) was 3.24%. The Content (2nd month) was 100.2%, the Hyoscyamine (2nd month) was “+0.001°” and the Moisture (2nd month) was 2.97%. For the same compound, the Content (3rd month) was 100.4%, the Hyoscyamine (3rd month) was 0.000° and the Moisture (3rd month) was 3.49%. The Content (6th month) was 100.3%, the Hyoscyamine (6th month) was 0.000° and the Moisture (6th month) was 3.69%.
